From US20240059677A1, “SUBSTITUTED PYRIMIDINE DERIVATIVES AS NICOTINIC ACETYLCHOLINESTERASE RECEPTOR ALPHA 6 MODULATOR” (priority 2020, published 2024) come the findings set out here.

The structures appear in SMILES notation.

For one experiment, the target named is T1, human nAChRα6-α3 chimera, in addition to β2 and β3^V273S subunits (Homo sapiens, UniProt P32297+Q15825).
T1 construct: expressed in transfected cells
T1 sequence (Q05901 25-458 V273S): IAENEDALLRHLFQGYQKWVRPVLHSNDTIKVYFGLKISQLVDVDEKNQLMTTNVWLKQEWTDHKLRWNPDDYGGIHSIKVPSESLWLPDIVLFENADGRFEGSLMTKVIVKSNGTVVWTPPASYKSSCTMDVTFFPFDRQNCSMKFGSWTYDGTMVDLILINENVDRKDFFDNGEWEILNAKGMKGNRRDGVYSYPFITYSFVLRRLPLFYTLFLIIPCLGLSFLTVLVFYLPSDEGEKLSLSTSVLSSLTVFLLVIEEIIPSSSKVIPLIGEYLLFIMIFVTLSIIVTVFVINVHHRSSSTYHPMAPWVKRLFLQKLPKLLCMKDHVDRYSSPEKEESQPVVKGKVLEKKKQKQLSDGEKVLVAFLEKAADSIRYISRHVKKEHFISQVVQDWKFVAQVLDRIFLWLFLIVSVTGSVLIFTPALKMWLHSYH
T1 sequence (P17787 26-502, stated change not applied, further chain): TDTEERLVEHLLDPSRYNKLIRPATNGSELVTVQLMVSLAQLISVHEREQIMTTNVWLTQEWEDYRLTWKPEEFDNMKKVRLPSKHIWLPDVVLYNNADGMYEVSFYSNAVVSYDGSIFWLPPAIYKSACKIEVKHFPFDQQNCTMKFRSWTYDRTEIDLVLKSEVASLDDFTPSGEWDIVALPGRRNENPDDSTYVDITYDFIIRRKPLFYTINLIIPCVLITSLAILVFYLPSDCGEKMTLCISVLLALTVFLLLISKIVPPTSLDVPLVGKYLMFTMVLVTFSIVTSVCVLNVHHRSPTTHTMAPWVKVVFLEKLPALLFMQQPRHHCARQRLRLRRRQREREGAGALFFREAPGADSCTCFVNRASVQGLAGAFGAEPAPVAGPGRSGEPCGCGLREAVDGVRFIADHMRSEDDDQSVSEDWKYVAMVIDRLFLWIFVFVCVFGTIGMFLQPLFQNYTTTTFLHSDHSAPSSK
T1 sequence (Q15825+P32297 fused with the stated changes): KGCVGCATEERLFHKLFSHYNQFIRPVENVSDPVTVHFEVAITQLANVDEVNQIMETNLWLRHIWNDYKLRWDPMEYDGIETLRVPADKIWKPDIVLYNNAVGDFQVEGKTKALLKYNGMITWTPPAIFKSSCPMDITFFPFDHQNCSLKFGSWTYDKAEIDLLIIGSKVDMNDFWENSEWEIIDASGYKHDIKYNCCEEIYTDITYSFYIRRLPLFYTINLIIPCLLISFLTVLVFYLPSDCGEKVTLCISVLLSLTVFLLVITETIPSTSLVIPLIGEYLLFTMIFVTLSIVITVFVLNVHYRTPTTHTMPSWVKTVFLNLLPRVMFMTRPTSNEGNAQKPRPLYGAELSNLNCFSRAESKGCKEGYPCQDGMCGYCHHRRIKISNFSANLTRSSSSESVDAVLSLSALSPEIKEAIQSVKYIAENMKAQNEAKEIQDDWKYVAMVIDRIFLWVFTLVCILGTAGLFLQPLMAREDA
The experiment can be described thus: fluorescence-based calcium assay: inhibition of nicotine stimulated nAChRα6 activity (FLIPR). The conditions noted are these: HEK cell line stably expressing the receptor; 10 min pre-incubation, nicotine EC80; 10-point curve, duplicate wells; read-out: IC50. A digest of the protocol: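 HEK cells stably expressing the human α6-α3 chimera with β2 and β3^V273S were loaded with calcium dye at 30° C. Compounds were pre-incubated for 10 min before nicotine at EC80, and the fluorescence change was read on a FLIPR. Ten-point half-log concentration-response, duplicate wells.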
In general, IC50 refers to the concentration at which inhibition is half-maximal. Regarding `Cc1nc(NC[C@H]2CCCN2)ncc1-c1ccc(C(F)(F)F)cc1F` [Example 102, (R)-5-(2-fluoro-4-(trifluoromethyl)phenyl)-4-methyl-N-(pyrrolidin-2-ylmethyl)pyrimidin-2-amine], the IC50 came out at 0.005 µM. Turning to `Cc1nc(NC[C@@H]2CCCN2)ncc1-c1ccc(C(F)(F)F)cc1F` [Example 103, (S)-5-(2-fluoro-4-(trifluoromethyl)phenyl)-4-methyl-N-(pyrrolidin-2-ylmethyl)pyrimidin-2-amine], the IC50 was determined as 0.04 µM.

`Cc1nc(NCC2CCCCN2)ncc1-c1ccc(C(F)(F)F)cc1F` (stereo not shown) [Example 104, 5-(2-fluoro-4-(trifluoromethyl)phenyl)-4-methyl-N-(2-piperidinylmethyl) pyrimidin-2-amine]: the IC50 was 0.027 µM. For `CCN1CCC[C@H]1CNc1ncc(-c2ccc(C(F)(F)F)cc2F)c(C)n1` [Example 105, (S)—N-((1-ethylpyrrolidin-2-yl)methyl)-5-(2-fluoro-4-(trifluoromethyl)phenyl)-4-methyl-pyrimidin-2-amine], the IC50 was determined as 0.05 µM.

Turning to `Cc1nc(NCCC2CCCN2C)ncc1-c1ccc(C(F)(F)F)cc1F` (stereo not shown) [Example 106, 5-(2-fluoro-4-(trifluoromethyl)phenyl)-4-methyl-N-(2-(1-methylpyrrolidin-2-yl)ethyl)pyrimidin-2-amine], the IC50 turned out to be 0.054 µM. For the compound `Cc1nc(NCC[C@H]2CCCN2C)ncc1-c1ccc(C(F)(F)F)cc1F` [Example 106a, (R)-5-(2-fluoro-4-(trifluoromethyl)phenyl)-4-methyl-N-(2-(1-methylpyrrolidin-2-yl)ethyl)pyrimidin-2-amine], the IC50 came to 0.105 µM.

Consider `Cc1nc(NCC[C@@H]2CCCN2C)ncc1-c1ccc(C(F)(F)F)cc1F` [Example 106b, (S)-5-(2-fluoro-4-(trifluoromethyl)phenyl)-4-methyl-N-(2-(1-methylpyrrolidin-2-yl)ethyl)pyrimidin-2-amine], for which the IC50 turned out to be 0.138 µM.

In the case of `Cc1nc(NCC2CCCN(C)C2)ncc1-c1ccc(C(F)(F)F)cc1F` (stereo not shown) [Example 107, 5-(2-fluoro-4-(trifluoromethyl)phenyl)-4-methyl-N-((1-methyl-3-piperidinyl)methyl)pyrimidin-2-amine], the IC50 is 0.154 µM. On to `Cc1nc(NCC2CN(C)CCO2)ncc1-c1ccc(C(F)(F)F)cc1F` (stereo not shown) [Example 108, 5-(2-fluoro-4-(trifluoromethyl)phenyl)-4-methyl-N-((4-methylmorpholin-2-yl)methyl)pyrimidin-2-amine], for which the IC50 was determined as 0.043 µM. Take `Cc1nc(N[C@H]2CCCC[C@@H]2N(C)C)ncc1-c1ccc(C(F)(F)F)cc1F` [Example 109, (1S,2S)—N^1-(5-(2-fluoro-4-(trifluoromethyl)phenyl)-4-methyl-pyrimidin-2-yl)-N^2,N^2-dimethyl-cyclohexane-1,2-diamine]: the IC50 is 0.096 µM. The same measure, in the same setting: the result for `Cc1nc(N[C@@H]2CCNC2)ncc1-c1ccc(C(F)(F)F)cc1F` [Example 110, (R)-5-(2-fluoro-4-(trifluoromethyl)phenyl)-4-methyl-N-(pyrrolidin-3-yl)pyrimidin-2-amine] reads 0.054 µM; that for `Cc1nc(N[C@H]2CC[C@H](N)C2)ncc1-c1ccc(C(F)(F)F)cc1F` [Example 111, (1S,3S)—N^3-(5-(2-fluoro-4-(trifluoromethyl)phenyl)-4-methyl-pyrimidin-2-yl)cyclopentane-1,3-diamine], 0.09 µM; that for `Cc1nc(NC[C@@H]2CCCNC2)ncc1-c1ccc(C(F)(F)F)cc1F` [Example 113, (R)-5-(2-fluoro-4-(trifluoromethyl)phenyl)-4-methyl-N-((3-piperidinyl)methyl)pyrimidin-2-amine], 0.045 µM. On to `Cc1nc(N[C@@H]2CNC[C@H]2O)ncc1-c1ccc(C(F)(F)F)cc1F` [Example 115, (3R,4R)-4-((5-(2-fluoro-4-(trifluoromethyl)phenyl)-4-methyl-pyrimidin-2-yl)amino)pyrrolidin-3-ol], for which the IC50 came to 0.121 µM. Take `O=C(O)/C=C/C(=O)O.[2H]C([2H])([2H])N1CCC[C@@H]1CNc1ncc(-c2ccc(C(F)(F)F)cc2F)c(C)n1` [Example 117, (R)-5-(2-fluoro-4-(trifluoromethyl)phenyl)-4-methyl-N-((1-(trideuteriomethyl)pyrrolidin-2-yl)methyl)pyrimidin-2-amine]: the IC50 was found to be 0.025 µM. Turning to `O=C(O)/C=C/C(=O)O.[2H]C([2H])([2H])N1CCC[C@H]1CNc1ncc(-c2ccc(C(F)(F)F)cc2F)c(C)n1` [Example 118, (S)-5-(2-fluoro-4-(trifluoromethyl)phenyl)-4-methyl-N-((1-(trideuteriomethyl)pyrrolidin-2-yl)methyl)pyrimidin-2-amine], the IC50 was determined as 0.075 µM.

With `Cc1nc(N[C@H]2CN3CCC2CC3)ncc1-c1ccc(C(F)(F)F)cc1F` [Example 119, (R)—N-(5-(2-fluoro-4-(trifluoromethyl)phenyl)-4-methyl-pyrimidin-2-yl) quinuclidin-3-amine], the IC50 came to 0.155 µM. `Cc1nc(N[C@@H]2CN3CCC2CC3)ncc1-c1ccc(C(F)(F)F)cc1F` [Example 120, (S)—N-(5-(2-fluoro-4-(trifluoromethyl)phenyl)-4-methyl-pyrimidin-2-yl) quinuclidin-3-amine]: the IC50 turned out to be 0.179 µM. Regarding `Cc1nc(N[C@H]2C[C@H]3CC[C@@H](C2)N3)ncc1-c1ccc(C(F)(F)F)cc1F` [Example 121, (1R,3s,5S)—N-(5-(2-fluoro-4-(trifluoromethyl)phenyl)-4-methyl-pyrimidin-2-yl)-8-azabicyclo[3.2.1]octan-3-amine], the IC50 is 0.191 µM. Regarding `Cc1nc(NC2CC3(CNC3)C2)ncc1-c1ccc(C(F)(F)F)cc1F` [Example 122, N-(5-(2-fluoro-4-(trifluoromethyl)phenyl)-4-methyl-pyrimidin-2-yl)-2-azaspiro[3.3]heptan-6-amine], the IC50 amounted to 0.039 µM. On to `Cc1nc(NC2CC23CCNCC3)ncc1-c1ccc(C(F)(F)F)cc1F` (stereo not shown) [Example 123, N-(5-(2-fluoro-4-(trifluoromethyl)phenyl)-4-methyl-pyrimidin-2-yl)-6-azaspiro[2.5]octan-1-amine], for which the concentration for half-maximal inhibition (IC50) was 0.15 µM. `Cc1nc(N[C@H]2CCNC[C@@H]2F)ncc1-c1ccc(C(F)(F)F)cc1F` [Example 124, 5-(2-fluoro-4-(trifluoromethyl)phenyl)-N-((3S,4S)-3-fluoropiperidin-4-yl)-4-methyl-pyrimidin-2-amine]: the IC50 was 0.903 µM.

Take `Cc1nc(N[C@H]2CCC[C@H](N)C2)ncc1-c1ccc(C(F)(F)F)cc1F` [Example 125, (1S,3S)—N^1-(5-(2-fluoro-4-(trifluoromethyl)phenyl)-4-methyl-pyrimidin-2-yl)cyclohexane-1,3-diamine]: the IC50 was determined as 0.223 µM. Turning to `Cc1nc(NC2CC(C)(C)NC(C)(C)C2)ncc1-c1ccc(C(F)(F)F)cc1F` [Example 126, 5-(2-fluoro-4-(trifluoromethyl)phenyl)-4-methyl-N-(2,2,6,6-tetramethylpiperidin-4-yl)pyrimidin-2-amine], the IC50 was determined as 0.259 µM. Regarding `Cc1nc(NC[C@H]2CCCNC2)ncc1-c1ccc(C(F)(F)F)cc1F` [Example 127, (S)-5-(2-fluoro-4-(trifluoromethyl)phenyl)-4-methyl-N-(piperidin-3-ylmethyl)pyrimidin-2-amine], the IC50 was determined as 0.119 µM.

For `Cc1nc(NC[C@]2(C)CCCN2)ncc1-c1ccc(C(F)(F)F)cc1F` [Example 134, (S)-5-(2-fluoro-4-(trifluoromethyl)phenyl)-4-methyl-N-((2-methyl-pyrrolidin-2-yl)methyl)pyrimidin-2-amine], the IC50 worked out at 0.101 µM.

Turning to `Cc1nc(NC[C@@]2(C)CCCN2)ncc1-c1ccc(C(F)(F)F)cc1F` [Example 135, (R)-5-(2-fluoro-4-(trifluoromethyl)phenyl)-4-methyl-N-((2-methyl-pyrrolidin-2-yl)methyl)pyrimidin-2-amine], the IC50 came out at 0.07 µM. For `Cc1nc(NC(=O)[C@H]2CCCN2C)ncc1-c1ccc(C(F)(F)F)cc1F` [Example 139, (R)—N-(5-(2-fluoro-4-(trifluoromethyl)phenyl)-4-methyl-pyrimidin-2-yl)-1-methylpyrrolidine-2-carboxamide], the IC50 is 0.086 µM.

The same experiment, now with this note: IC50 (μM), HEK cell line stably expressing the receptor; 10 min pre-incubation, nicotine EC80; 10-point curve, duplicate wells.
In the case of `Cc1nc(NC[C@H]2CCCCN2)ncc1-c1ccc(C(F)(F)F)cc1F` [Example 104a, (R)-5-(2-fluoro-4-(trifluoromethyl)phenyl)-4-methyl-N-(2-piperidinylmethyl)pyrimidin-2-amine], the IC50 worked out at 0.104 µM.

Take `Cc1nc(NC[C@@H]2CCCCN2)ncc1-c1ccc(C(F)(F)F)cc1F` [Example 104b, (S)-5-(2-fluoro-4-(trifluoromethyl)phenyl)-4-methyl-N-(2-piperidinylmethyl)pyrimidin-2-amine]: the half-inhibitory concentration (IC50) is 0.045 µM. Consider `Cc1nc(N[C@H]2CCCNC2)ncc1-c1ccc(C(F)(F)F)cc1F` [Example 116, (S)-5-(2-fluoro-4-(trifluoromethyl)phenyl)-4-methyl-N-(3-piperidinyl) pyrimidin-2-amine], for which the IC50 worked out at 0.127 µM.

Regarding `Cc1nc(N[C@@H]2CCCNC2)ncc1-c1ccc(C(F)(F)F)cc1F` [Example 128, (R)-5-(2-fluoro-4-(trifluoromethyl)phenyl)-4-methyl-N-(piperidin-3-yl) pyrimidin-2-amine], the IC50 came out at 0.18 µM. In the case of `Cc1nc(NC[C@]2(C)CCCN2C)ncc1-c1ccc(C(F)(F)F)cc1F` [Example 136, (S)—N-((1,2-dimethylpyrrolidin-2-yl)methyl)-5-(2-fluoro-4-(trifluoromethyl)phenyl)-4-methyl-pyrimidin-2-amine], the half-maximal inhibitory concentration (IC50) stood at 0.096 µM. Consider `Cc1nc(NC[C@@]2(C)CCCN2C)ncc1-c1ccc(C(F)(F)F)cc1F` [Example 137, (R)—N-((1,2-dimethylpyrrolidin-2-yl)methyl)-5-(2-fluoro-4-(trifluoromethyl)phenyl)-4-methyl-pyrimidin-2-amine], for which the IC50 stood at 0.11 µM.
